Reference: US20070128217A1 (priority 2003, published 2007)

Assays:
[1] = test system: control sera (pooled serum of ten healthy LUMC hospital workers; commercial negative donor pooled serum from the Dutch bloodbank); format: binding, human; design: Binding of Control serum LUMC to linear peptides / Binding of Control serum Blood-bank to linear peptides / Binding of Control serum LUMC to looped peptides / Binding of Control Serum Blood-Bank to Looped peptides / Binding of Control serum LUMC to linear peptides of the protein M of SARS-CoV Urbani / Binding of Control serum Blood-bank to linear peptides of the protein M of SARS-CoV Urbani / Binding of Control serum LUMC to looped peptides of the protein M of SARS-CoV Urbani / Binding of Control Serum Blood-Bank to Looped peptides of the protein M of SARS-CoV Urbani: unit not given here
[2] = test system: antibodies in sera from SARS patients (sera 1a, 1b, 2, 6, 37, 62, London, SARS-yellow, SARS-green); format: binding, human; design: Binding of serum 6 to linear peptides of protein X1 of SARS-CoV Urbani / Binding of serum 37 to linear peptides of protein X1 of SARS-CoV Urbani / Binding of serum 6 to looped/cyclic peptide (PEPSCAN-ELISA) / Binding of serum 37 to looped/cyclic peptide (PEPSCAN-ELISA) / Binding of serum 37 to looped/cyclic peptides of protein X1 of SARS-CoV Urbani / Binding of serum 6 to linear peptides of protein X2 / Binding of serum 37 to linear peptides of protein X2 / Binding of serum 37 to looped/cyclic peptides of protein X2 of SARS-CoV Urbani / Binding of serum 6 to linear peptides of protein M of SARS-CoV Urbani / Binding of serum 37 to linear peptides of protein M of SARS-CoV Urbani / Binding of serum 6 to looped/cyclic peptides of protein M of SARS-CoV Urbani / Binding of serum 37 to looped/cyclic peptides of protein M of SARS-CoV Urbani / Binding of serum 6 to linear peptides of protein X3 of SARS-CoV Urbani / Binding of serum 37 to linear peptides of protein X3 of SARS-CoV Urbani / Binding of serum 37 to looped/cyclic peptides of protein X3 of SARS-CoV Urbani / Binding of serum 6 to linear peptides of protein X4 of SARS-CoV Urbani / Binding of serum 37 to linear peptides of protein X4 of SARS-CoV Urbani / Binding of serum 37 to looped/cyclic peptides of protein X4 of SARS-CoV Urbani / Binding of serum 6 to linear peptides of protein X5 of SARS-CoV Urbani / Binding of serum 37 to linear peptides of protein X5 of SARS-CoV Urbani / Binding of serum 37 to looped/cyclic peptides of protein X5 of SARS-CoV Urbani / Binding of serum 6 to linear peptides of protein N of SARS-CoV Urbani / Binding of serum 37 to linear peptides of protein N of SARS-CoV Urbani / Binding of serum 6 to linear peptide (PEPSCAN-ELISA) / Binding of serum 1a to looped/cyclic peptides of protein N of SARS-CoV Urbani / Binding of serum 1b to looped/cyclic peptides of protein N of SARS-CoV Urbani / Binding of serum 2 to looped/cyclic peptides of protein N of SARS-CoV Urbani / Binding of serum 6 to looped/cyclic peptides of protein N of SARS-CoV Urbani / Binding of serum 37 to looped/cyclic peptides of protein N of SARS-CoV Urbani / Binding of serum 62 to looped/cyclic peptides of protein N of SARS-CoV Urbani / Binding of serum London to looped/cyclic peptides of protein N of SARS-CoV Urbani / Binding of serum SARS-green to looped/cyclic peptides of protein N of SARS-CoV Urbani: unit not given here
[3] = test system: rabbit serum obtained by immunizing a rabbit with the SARS-CoV strain Frankfurt 1; format: binding; design: Binding of a rabbit serum to linear peptides / Binding of a rabbit serum to looped peptides / Rabbit serum linear peptides / Rabbit serum looped peptides / Binding of a rabbit serum to linear peptides of protein N of SARS-CoV Urbani (Rabbit serum linear peptides) / Binding of a rabbit serum to looped/cyclic peptides of protein N of SARS-CoV Urbani (Rabbit serum looped peptides): unit not given here

GTIVTRPLMESELVI
Binding of Control Serum Blood-Bank to Looped peptides of the protein M of SARS-CoV Urbani [1]: 0.8 | Binding of Control serum Blood-bank to linear peptides of the protein M of SARS-CoV Urbani [1]: 0.7 | Binding of Control serum LUMC to linear peptides of the protein M of SARS-CoV Urbani [1]: 0.6 | Binding of Control serum LUMC to looped peptides of the protein M of SARS-CoV Urbani [1]: 1.0 | Binding of serum 1a to linear peptides of protein M of SARS-CoV Urbani [2]: 0.8 | Binding of serum 1b to linear peptides of protein M of SARS-CoV Urbani [2]: 0.7 | Binding of serum 2 to linear peptides of protein M of SARS-CoV Urbani [2]: 0.7 | Binding of serum 6 to linear peptides of protein M of SARS-CoV Urbani [2]: 0.5 | Binding of serum 37 to linear peptides of protein M of SARS-CoV Urbani [2]: 0.6 | Binding of serum 62 to linear peptides of protein M of SARS-CoV Urbani [2]: 0.7 | Binding of serum London to linear peptides of protein M of SARS-CoV Urbani [2]: 0.3 | Binding of serum SARS-green to linear peptides of protein M of SARS-CoV Urbani [2]: 0.7 | Binding of serum SARS-yellow to linear peptides of protein M of SARS-CoV Urbani [2]: 0.2 | Recognition of the peptide by sera of SARS-CoV infected individuals, and form (linear, looped/cyclic) in which it is recognized [2]: recognized in looped/cyclic form | Rabbit serum linear peptides [3]: 0.1 | Rabbit serum looped peptides [3]: 0.5

GTRHTYQLRARSVSP
Binding of Control Serum Blood-Bank to Looped peptides [1]: 0.7 | Binding of Control serum Blood-bank to linear peptides [1]: 0.8 | Binding of Control serum LUMC to linear peptides [1]: 0.6 | Binding of Control serum LUMC to looped peptides [1]: 0.8 | Binding of serum 1a to linear peptides of protein X4 of SARS-CoV Urbani [2]: 0.7 | Binding of serum 1a to looped/cyclic peptides of protein X4 of SARS-CoV Urbani [2]: 0.8 | Binding of serum 1b to linear peptides of protein X4 of SARS-CoV Urbani [2]: 0.6 | Binding of serum 1b to looped/cyclic peptides of protein X4 of SARS-CoV Urbani [2]: 0.5 | Binding of serum 2 to linear peptides of protein X4 of SARS-CoV Urbani [2]: 0.8 | Binding of serum 2 to looped/cyclic peptides of protein X4 of SARS-CoV Urbani [2]: 1.0 | Binding of serum 6 to linear peptides of protein X4 of SARS-CoV Urbani [2]: 0.6 | Binding of serum 6 to looped/cyclic peptides of protein X4 of SARS-CoV Urbani [2]: 0.6 | Binding of serum 37 to linear peptides of protein X4 of SARS-CoV Urbani [2]: 0.8 | Binding of serum 37 to looped/cyclic peptides of protein X4 of SARS-CoV Urbani [2]: 0.7 | Binding of serum 62 to linear peptides of protein X4 of SARS-CoV Urbani [2]: 0.8 | Binding of serum 62 to looped/cyclic peptides of protein X4 of SARS-CoV Urbani [2]: 0.8 | Binding of serum London to linear peptides of protein X4 of SARS-CoV Urbani [2]: 0.8 | Binding of serum London to looped/cyclic peptides of protein X4 of SARS-CoV Urbani [2]: 0.3 | Binding of serum SARS-green to linear peptides of protein X4 of SARS-CoV Urbani [2]: 0.6 | Binding of serum SARS-green to looped/cyclic peptides of protein X4 of SARS-CoV Urbani [2]: 0.5 | Binding of serum SARS-yellow to linear peptides of protein X4 of SARS-CoV Urbani [2]: 0.8 | Binding of serum SARS-yellow to looped/cyclic peptides of protein X4 of SARS-CoV Urbani [2]: 0.7 | Recognition of the peptide by the rabbit serum [3]: recognized

GVAFLAVFQSATKII
Binding of Control Serum Blood-Bank to Looped peptides [1]: 0.7 | Binding of Control serum Blood-bank to linear peptides [1]: 0.5 | Binding of Control serum LUMC to linear peptides [1]: 0.7 | Binding of Control serum LUMC to looped peptides [1]: 0.7 | Binding of serum 1a to linear peptides of protein X1 of SARS-CoV Urbani [2]: 0.7 | Binding of serum 1a to looped/cyclic peptide (PEPSCAN-ELISA) [2]: 0.6 | Binding of serum 1b to linear peptides of protein X1 of SARS-CoV Urbani [2]: 0.6 | Binding of serum 1b to looped/cyclic peptide (PEPSCAN-ELISA) [2]: 0.4 | Binding of serum 2 to linear peptides of protein X1 of SARS-CoV Urbani [2]: 0.8 | Binding of serum 2 to looped/cyclic peptide (PEPSCAN-ELISA) [2]: 0.6 | Binding of serum 6 to linear peptides of protein X1 of SARS-CoV Urbani [2]: 0.7 | Binding of serum 6 to looped/cyclic peptide (PEPSCAN-ELISA) [2]: 0.5 | Binding of serum 37 to linear peptides of protein X1 of SARS-CoV Urbani [2]: 0.6 | Binding of serum 37 to looped/cyclic peptide (PEPSCAN-ELISA) [2]: 0.6 | Binding of serum 62 to linear peptides of protein X1 of SARS-CoV Urbani [2]: 0.6 | Binding of serum 62 to looped/cyclic peptide (PEPSCAN-ELISA) [2]: 0.6 | Binding of serum London to linear peptides of protein X1 of SARS-CoV Urbani [2]: 0.2 | Binding of serum London to looped/cyclic peptide (PEPSCAN-ELISA) [2]: 0.4 | Binding of serum SARS-green to linear peptides of protein X1 of SARS-CoV Urbani [2]: 0.3 | Binding of serum SARS-green to looped/cyclic peptide (PEPSCAN-ELISA) [2]: 0.3 | Binding of serum SARS-yellow to linear peptides of protein X1 of SARS-CoV Urbani [2]: 0.2 | Binding of serum SARS-yellow to looped/cyclic peptide (PEPSCAN-ELISA) [2]: 0.3 | Binding of a rabbit serum to linear peptides [3]: 0.9 | Binding of a rabbit serum to looped peptides [3]: 0.6
